Data taken from patent publication US7968530B2 (priority 2005, dated 2011).
Where two headings read alike, the source gives them in different places.

What was measured:
[1] = test system: Plasmopara viticola; assay: 1-day curative fungicidal activity of fungicidal mixtures against peronospora of vines (Example 10); type: in vivo
Method: Leaves of vines (cultivar Dolcetto), grown in vases in a conditioned environment (20±1° C.), 70% relative humidity) were infected with an aqueous suspension of spores of Plasmopara viticola (200,000 conidia per cm^3).
(§1) After remaining 24 hours in a conditioned environment, both sides of the leaves were sprayed with the fungicidal mixtures under examination dissolved in a hydroacetone solution at 20% of acetone (vol./vol.).
After drying, the plants were transferred for the incubation period of the fungus (6 days) to a conditioned at 70% relative humidity and 24° C.

[2] = test system: Phytophthora infestans; type: in vivo
[3] = test system: Plasmopara tabacina; assay: 1-day curative fungicidal activity of fungicidal mixtures against peronospora of tobacco (Example 11); type: in vivo
Method: Determination of the Fungicidal Activity of Fungicidal Mixtures Against Peronospora of Tobacco (Plasmopara tabacina).
Leaves of tobacco plants (cultivar Barley), grown in vases in a conditioned environment (20±1° C.), 70% relative humidity) were infected with an aqueous solution of spores of Plasmopara tabacina (200,000 conidia per cm^3).
as §1
After drying, the plants were transferred for the incubation period of the fungus (6 days) to a conditioned environment at 70% relative humidity and 24° C.

[4] = test system: Phytophthora infestans; details: 1-day curative, potato Primura, scale 100 healthy to 0 infected
[5] = test system: Plasmopara viticola; assay: Preventive fungicidal activity against peronospora of vines, sprayed vine leaves (Example 7); type: in vivo; details: 7-day preventive, vine cv. Dolcetto, scale 0 (completely infected) to 100 (healthy plant); for Activity 500 ppm: 500 ppm as equivalent phosphorous acid; for Activity 1000 ppm: 1000 ppm as equivalent phosphorous acid
Method: Determination of the Fungicidal Activity Against Peronospora of Vines (Plasmopara viticola).
Vine leaves (cultivar Dolcetto), grown in vases in a conditioned environment (20±1° C., 70% relative humidity) are treated by spraying both sides of the leaves with compounds 1 and 2, dispersed in a hydroacetone solution at 20% by volume in acetone.
After remaining 24 hours in a conditioned environment, the plants were sprayed on both sides of the leaves with an aqueous suspension of conidia of Plasmopara viticola (20,000 conidia per cm^3).
The plants are kept in a humidity saturated environment at 21° C. for the incubation period of the fungus.
At the end of this period (7 days), the fungicidal activity is evaluated according to an evaluation percentage scale from 0 (completely infected plant) to 100 (healthy plant).

[6] = 1575 ppm as equivalent phosphorous acid
[7] = compound alone at 1575 ppm as equivalent phosphorous acid, 1-day curative, potato, scale 0-100

CN(C)CCO [N,N-dimethylethanolamine]
Activity (y) ([1]; in vivo): 25
Activity (y) ([2]; in vivo): 30
Activity (y) ([3]; in vivo): 5

C[N+](C)(C)CCO.[Cl-] [Choline chloride]
Activity (y) ([1]; compound alone at 2047 ppm, 1-day curative, vine, scale 0-100): 20
Activity (y) ([2]; compound alone at 2730 ppm, 1-day curative, potato, scale 0-100): 20
Activity ([4]; 2690 ppm (quantity of choline contained in Compound No 2)): 15 (2690 ppm*)
Activity (y) ([3]; compound alone at 2047 ppm, 1-day curative, tobacco, scale 0-100): 10
Activity 500 ppm [5]: 35
Activity 1000 ppm [5]: 57

O=[PH]([O-])[O-].[K+].[K+] [Compound K2HPO3, K2HPO3, reference compound]
Activity [4, 6]: 40 (1575 ppm**)
Activity 500 ppm [5]: 45
Activity 1000 ppm [5]: 80

Acid Choline Phosphite [Compound 2]
Activity (y) [2, 7]: 65
Activity [4, 6]: 65 (1575 ppm**)
Activity ([4]; 1575 ppm as equivalent phosphorous acid, […]): 65
Activity 500 ppm [5]: 85
Activity 1000 ppm [5]: 95

CN(C)CCCO [3-dimethylamine-1-propanol]
Activity (y) ([2]; in vivo): 25

C[N+](C)(C)CCO.O=C([O-])O [Choline bicarbonate]
Activity 500 ppm [5]: 75
Activity 1000 ppm [5]: 84

Neutral Choline Phosphite [Compound 1]
Activity (y) [2, 7]: 65
Activity 500 ppm [5]: 90
Activity 1000 ppm [5]: 100
